Laboratory results: patent US20080280810A1, “PEPTIDES HAVING AFFINITY FOR BODY SURFACES” (priority 2006, published 2008)

Tests used:
[1] = Phage ELISA on pellicle coated HAP disks; type: binding, human; conditions: over 10^10 pfu purified phage, anti-M13 HRP conjugate, TMB, no phage control 0.218
Procedure: A total of 20 selected phage candidates (Example 29) were used in a phage ELISA experiment. Purified phage lysates were used for binding to pellicle HAP disks using an anti-M13 phage antibody conjugated to horseradish-peroxidase, followed by the addition of chromogenic agent TMB, obtained from Pierce Biotechnology (Rockford, Ill.). The plates were read at A450 nm.
For each phage candidate to be tested, the pellicle coated HAP disks (3 mm diameter) was incubated for 1 h at room temperature with 200 μL of blocking buffer, consisting of 2% non-fat dry milk (Schleicher & Schuell, Inc.) in TBS. The blocking buffer was removed by aspirating the liquid out of each tube. The tube was rinsed 6 times with wash buffer consisting of TBST-0.05%. The wells were filled with 200 μL of TBST-0.5% containing 1 mg/mL BSA (bovine serum albumin) and then 10 μL (over 10^10 pfu) of purified phage stock was added. The samples were incubated at room temperature for 60 min with slow shaking. The non-binding phage were removed by washing 6 times with TBST-0.5%. Then, 100 μL of horseradish peroxidase/anti-M13 antibody conjugate (Amersham USA, Piscataway, N.J.), diluted 1:500 in the blocking buffer, was added and incubated for 1 h at room temperature. The conjugate solution was removed and was washed 6 times with TBST-0.5%. TMB (3,3′,5,5′-tetramethylbenzidine) substrate (200 μL), obtained from Pierce Biotechnology (Rockford, Ill.) was added to each well and the color was allowed to develop for 5 to 30 min, typically for 10 min, at room temperature. Then, stop solution (200 μL of 2 M H2SO4) was added to each well and the solution was transferred to a 96-well plate and the A450 was measured using a microplate spectrophotometer (Molecular Devices, Sunnyvale, Calif.).

[2] = Co-application of multi-block peptide with semi-permanent dye (Arianor Ebony), color retention; parameters: species or system human; conditions: difference in Delta E between peptide sample and peptide free control after 3 embrocation cycles (about 12 manual shampoos); pH 8.5-9.0; >2 benefit, >4 substantial benefit
Procedure: (§1) A 0.5% aqueous solution of Arianor Ebony (Sensient Technologies Corp, Milwaukee, Wis.) containing 3% benzyl alcohol and 0.05% diazolidinyl urea (biocide) was prepared. Dye insolubles were removed by filtration and the pH of the dye solution was adjusted to 8.50-9.0, using ethanolamine.
(§2) Approximately 1 mL of the dye solution was added to selected wells of a 24-well plate (Thomson Instrument Co., Oceanside, Calif.; part # 931565). A multi-block peptide (see Table 12) was dissolved in a solution consisting of 3 wt % benzyl alcohol and 95 wt % water to yield a peptide concentration of 2 wt % or approximately 20 mg/mL. The pH was adjusted to 8.5-9.0 using ethanolamine. The peptide solution was then pipetted into test wells containing dye solution in the amount of 1 mL or 0.2 mL respectively. The total volume in each test well was then adjusted to 2 mL where necessary using 3% aqueous benzyl alcohol (pH adjusted to 8.5-9.0 with ethanolamine). Peptide free controls consisted of 1 mL of dye solution diluted to 2 mL with the pH adjusted aqueous benzyl alcohol solution.
(§3) Baseline […] readings were made on one inch long tresses (see below) using an X-RITE® SP78™ Sphere Spectrophotometer (X-Rite, Inc., Grandville, Mich.), by placing the hair tress into the photosensor and calculating L*, a* and b* parameters representing the photometer response. All measurements were the average of three individual determinations.
(§4) The tresses (potted on one end with resin) of natural white, 85% gray or regular bleached hair (International Hair Importers and Products, Bellerose, N.Y.) were immersed in the peptide/dye solution and the entire well plate was agitated on a VORTEX-GENIE® 2 Mixer (Scientific Industries, Bohemia, N.Y.) at a speed setting of 1 for 30 minutes. The tresses were removed from the wells, rinsed for 30 seconds under flowing deionized water and then air dried.
(§5) The following complement of beads was then added to each well containing a hair tress: (8 beads in all; 4 Novagen Coli Rollers Plating Beads—sterilized (EMD Biosciences, San Diego, Calif.; Catalog No. 71013), 2 BioSpec 6.35 mm glass beads (BioSpec Products, Bartlesville, Okla.; Catalog No. 11079635), and 2 BioSpec 3.2 mm Stainless Steel Bead (Catalog No. 11079132ss).
(§6) Then 2.5 mL of aqueous 50% Pantene Pro V® shampoo (Proctor & Gamble Co., Cincinnati, Ohio) was pipetted into each well. The plate was placed on a VWR® VX-2500 Multi-tube Vortexer (VWR, West Chester, Pa.) for 5 minutes to simulate shampooing with embrocation. The hair tresses were then rinsed under flowing deionized water and air dried. This cycle was repeated two more times except that the length of time was 10 minutes for both subsequent embrocation cycles. (This treatment was previously determined to simulate approximately 12 manual shampoo cycles.) At the conclusion of the third embrocation cycle L*, a* and b* values were measured and Delta E values (ΔE) were calculated using equation 1 below:
(§7) where L*=the lightness variable and a* and b* are the chromaticity coordinates of CIELAB colorspace as defined by the International Commission of Illumination (CIE) (Minolta, Precise Color Communication—Color Control From Feeling to Instrumentation, Minolta Camera Co., 1996).
(§8) The Delta E value (ΔE) indicates color retention relative to the non-dyed hair and larger Delta E values indicate better performance. Values listed in the table represent the difference in Delta E values between the peptide-containing sample and the peptide free control. This difference is indicative of color retention after shampoo or water rinse treatments and positive values indicate better performance relative to the peptide free controls (Table 12).

[3] = as above; parameters: species or system human; key: ΔE of peptide sample minus peptide-free control; larger = better retention; conditions: difference in Delta E between peptide sample and peptide free control after 3 embrocation cycles (about 12 manual shampoos); pH 8.5-9.0; >2 benefit, >4 substantial benefit
Procedure: as §1, §2, §3, §4, §5, §6, §7, §8

[4] = HPLC analysis of peptide uptake by hair; type: binding, human; conditions: 20 mM Tris pH 7.2, 0.15 M NaCl, room temperature, no dye; peptide 0.1 mg/mL (IB5A, A5) or 0.05 mg/mL (HC 71, HC 74)
Procedure: The purpose of this Example was to compare the speed of uptake by measuring the amount of various peptides including peptides of the invention bound to hair at different time points using a high performance liquid chromatography (HPLC) method. The peptides, HC 71, HC 74, IB5 (the hair-binding peptide sequence in HC 71), and A5 (the hair-binding peptide sequence in HC 74), were dissolved in 10 mL of 20 mM Tris, pH 7.2 buffer containing 0.15 M NaCl to give the peptide concentrations shown in Table 11. Natural white hair, 0.54 g, (International Hair Importers & Products Inc., Bellerose, N.Y.) was pre-equilibrated with 10 mL of Tris buffer for 30 min with mixing at room temperature. Then, the buffer was drained from the hair and 10 mL of one of the peptide solutions was added. The hair was incubated with the peptide solution at room temperature without mixing and samples were taken at 0, 30 and 60 min for HPLC analysis. For peptide uptake measurements in the presence of Acid Red 33 dye, the peptide solution was mixed 1:1 with an aqueous solution of the dye (0.5 wt %). Natural white hair (0.65 g) pre-wet with deionized water, was added to the peptide solutions and the solutions were incubated at room temperature without mixing. Samples were taken at time 0, 30, and 60 min for analysis by HPLC. The samples were analyzed using HPLC to determine the concentration of the peptide remaining in solution, and by difference, the amount of peptide taken up by the hair. The HPLC analysis was done using an Agilent liquid chromatograph (Agilent Technologies Inc., Wilmington, Del.) with a 5 μm Zorbax Eclipse XDB-C18 column (Agilent Technologies Inc.). The sample was diluted with distilled water containing 0.1% trifluoroacetic acid (typically a 10-fold dilution), and 5 to 50 μL was injected using a 100 μL injection loop. A solvent gradient elution was used with two solvents: Solvent A, consisting of acetonitrile with 0.1% aqueous trifluoracetic acid, and Solvent B, consisting of water with 0.1% trifluoroacetic acid. The gradient was from 10% acetonitrile to 80% acetonitrile at a rate of 1%/min over a period of 70 min. The flow rate was 1.25 mL/min. Detection was done with a photodiode array detector at 218 nm, 230 nm, and 278 nm.

NPTATPHMKDPMHSNAHSSA [Pell 14]
O.D. at 450 nm [1]: 0.7

NPTDHIPANSTNSRVSKGNT [Pell 15]
O.D. at 450 nm [1]: 0.567

DPNESNYENATTVSQPTRHL [Pell 7]
O.D. at 450 nm [1]: 0.831

P-KRGRHKRPKRHK-GGG-IB5A-C (PKRGRHKRPKRHKGGGTPPELLHGAPRSC; Peptide having affinity for hair) [HC100]
ΔE Retention Ebony Dye with 85% Gray Hair [2]: 4.1
ΔE Retention Ebony Dye Regular Bleached Hair [3]: −0.27
ΔE Retention Ebony dye with Natural White Hair [3]: −4.5

TPPELLHGAPRS (Hair-binding peptide) [IB5A, reference compound]
% Uptake time = 0 min [4]: 0%
% Uptake time = 30 min [4]: 8%

IB5-KRKRKD (TPPELLHGDPRSKRKRKD; Peptide having affinity for hair)
ΔE Retention Ebony Dye with 85% Gray Hair [2]: 1.2
ΔE Retention Ebony Dye Regular Bleached Hair [3]: −0.44
ΔE Retention Ebony dye with Natural White Hair [3]: 4.49

A5-EGEGER (EQISGSLVAAPWEGEGER; Peptide having affinity for hair) [Peptide A5-EGEGER]
ΔE Retention Ebony Dye with 85% Gray Hair [2]: 3.7
ΔE Retention Ebony Dye Regular Bleached Hair [3]: −1.0
ΔE Retention Ebony dye with Natural White Hair [3]: 5.7

DECMEPLNAAHCWR [Pell 3]
O.D. at 450 nm [1]: 0.49

EQISGSLVAAPW (Hair-Binding Peptide) [Peptide A5, reference compound]
% Uptake time = 0 min [4]: 0%
% Uptake time = 30 min [4]: 2%
% Uptake time = 60 min [4]: 4%

WCTDFCTRSTPTSTSRSTTS [Pell 20]
O.D. at 450 nm [1]: 0.715

LDTSFHQVPFHQ (Peptide having affinity for hair) [Peptide F4, reference compound]
ΔE Retention Ebony Dye with 85% Gray Hair [2]: 3.24
ΔE Retention Ebony Dye Regular Bleached Hair [3]: 0.95
ΔE Retention Ebony dye with Natural White Hair [3]: 5.17

EPTHPTMRAQMHQSLRSSSP [Pell 8]
O.D. at 450 nm [1]: 0.712

NGPDMVQSVGKHKNS [Pell 10]
O.D. at 450 nm [1]: 0.729

ASVSNYPPIHHLATSNTTVN [Pell 2]
O.D. at 450 nm [1]: 0.75

KF11-EGEGED (NTSQLSTEGEGED; Peptide having affinity for hair)
ΔE Retention Ebony Dye with 85% Gray Hair [2]: 0.94
ΔE Retention Ebony Dye Regular Bleached Hair [3]: −4.05
ΔE Retention Ebony dye with Natural White Hair [3]: 3.6

A5-KRKRKD (EQISGSLVAAPWKRKRKD; Peptide having affinity for hair) [Peptide A5-KRKRKD]
ΔE Retention Ebony Dye with 85% Gray Hair [2]: −0.59
ΔE Retention Ebony Dye Regular Bleached Hair [3]: 1.09
ΔE Retention Ebony dye with Natural White Hair [3]: 5.8

DECMHGSDVEFCTS [Pell 4]
O.D. at 450 nm [1]: 0.664

TPCAPASFNPHCSR [Pell 18]
O.D. at 450 nm [1]: 0.416

TPCATYPHFSGCRA [Pell 19]
O.D. at 450 nm [1]: 0.731

F4-KRKRKD (LDTSFHQVPFHQKRKRKD; Peptide having affinity for hair) [Peptide F4-KRKRKD]
ΔE Retention Ebony Dye with 85% Gray Hair [2]: 2.87
ΔE Retention Ebony Dye Regular Bleached Hair [3]: −2.66
ΔE Retention Ebony dye with Natural White Hair [3]: 0.12

NNTSADNPPETDSKHHLSMS [Pell 12]
O.D. at 450 nm [1]: 0.521

DLCSSPSTWGSCIR [Pell 6]
O.D. at 450 nm [1]: 0.735

AHPESLGIKYALDGNSDPHA [Pell 1]
O.D. at 450 nm [1]: 0.739

NPTDSTHMMHARNHE [Pell 16]
O.D. at 450 nm [1]: 0.578

DLCSMQMMNTGCHY [Pell 5]
O.D. at 450 nm [1]: 0.83

GNTDTTPPNAVMEPTVQHKW [Pell 9]
O.D. at 450 nm [1]: 0.755

NGPEVRQIPANFEKL [Pell 11]
O.D. at 450 nm [1]: 0.607

NNTWPEGAGHTMPSTNIRQA [Pell 13]
O.D. at 450 nm [1]: 0.598
